How the values were obtained:
Assay type in all cases: in vivo
corn (Zea mays) = test: Test A pre-/postemergence plant response
Text: (§1) Seeds of barnyardgrass (Echinochloa crus-galli), large crabgrass (Digitaria sanguinalis), giant foxtail (Setaria faberii), morningglory (Ipomoea spp.), pigweed (Amaranthus retroflexus), velvetleaf (Abutilon theophrasti), wheat (Triticum aestivum) and corn (Zea mays) were planted into a blend of loam soil and sand and treated preemergence with a directed soil spray using test chemicals formulated in a non-phytotoxic solvent mixture which included a surfactant. At the same time these species were also treated with postemergence applications of test compounds formulated in the same manner.
(§2) Plants ranged in height from two to ten cm and were in the one- to two-leaf stage for the postemergence treatment. Treated plants and untreated controls were maintained in a greenhouse for approximately ten days, after which time all treated plants were compared to untreated controls and visually evaluated for injury. Plant response ratings, summarized in Table A, are based on a 0 to 100 scale where 0 is no effect and 100 is complete control. A dash (-) response means no test result.

[1] = tested on: giant foxtail (Setaria faberii); test: Test A pre-/postemergence plant response
Text: as §1, §2

[2] = tested on: wheat (Triticum aestivum); test: Test A pre-/postemergence plant response
Text: as §1, §2

[3] = tested on: pigweed (Amaranthus retroflexus); test: Test A pre-/postemergence plant response
Text: as §1, §2

[4] = tested on: large crabgrass (Digitaria sanguinalis); test: Test A pre-/postemergence plant response
Text: as §1, §2

[5] = tested on: barnyardgrass (Echinochloa crus-galli); test: Test A pre-/postemergence plant response
Text: as §1, §2

[6] = tested on: velvetleaf (Abutilon theophrasti); test: Test A pre-/postemergence plant response
Text: as §1, §2

[7] = tested on: morningglory (Ipomoea spp.); test: Test A pre-/postemergence plant response
Text: as §1, §2

rice (Oryza sativa) = test: Test B flooded paddy test; settings: for Plant response rating, Flood, Rice: 250 g ai/ha, flooded paddy test, visual rating on 0 to 100 scale (0 no effect, 100 complete control) after 13 to 15 days; for Plant response rating, Rice: Flood (flooded paddy test), 13 to 15 days; for Rice plant response rating: Flood, 31 g ai/ha, scale 0 to 100 (0 no effect, 100 complete control)
In short: (§3)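 2-leaf seedlings; pots flooded 3 cm over soil at treatment; cpd dosed into floodwater, depth kept constant. Greenhouse 13–15 d. Visual rating vs untreated controls, 0 = no effect, 100 = complete control.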

[8] = tested on: ducksalad (Heteranthera limosa); test: Test B flooded paddy test; settings: for Plant response rating, Flood, Ducksalad: 250 g ai/ha, flooded paddy test, visual rating on 0 to 100 scale (0 no effect, 100 complete control) after 13 to 15 days; for Plant response rating, Ducksalad: Flood (flooded paddy test), 13 to 15 days; for Ducksalad plant response rating: Flood, 31 g ai/ha, scale 0 to 100 (0 no effect, 100 complete control)
In short: as §3

[9] = tested on: barnyardgrass (Echinochloa crus-galli); test: Test B flooded paddy test; settings: for Plant response rating, Flood, Barnyardgrass: 250 g ai/ha, flooded paddy test, visual rating on 0 to 100 scale (0 no effect, 100 complete control) after 13 to 15 days; for Plant response rating, Barnyardgrass: Flood (flooded paddy test), 13 to 15 days; for Barnyardgrass plant response rating: Flood, 31 g ai/ha, scale 0 to 100 (0 no effect, 100 complete control)
In short: as §3

[10] = tested on: umbrella sedge (Cyperus difformis); test: Test B flooded paddy test; settings: for Plant response rating, Flood, Sedge, Umbrella: 250 g ai/ha, flooded paddy test, visual rating on 0 to 100 scale (0 no effect, 100 complete control) after 13 to 15 days; for Plant response rating, Sedge, Umbrella: Flood (flooded paddy test), 13 to 15 days; for Sedge, Umbrella plant response rating: Flood, 31 g ai/ha, scale 0 to 100 (0 no effect, 100 complete control)
In short: as §3

[11] = Postemergence, 125 g ai/ha, 0 to 100 scale where 0 is no effect and 100 is complete control
[12] = Postemergence, 500 g ai/ha, 0 to 100 scale, 0 = no effect, 100 = complete control, approx. ten days
[13] = Preemergence, 125 g ai/ha, 0 to 100 scale, 0 = no effect, 100 = complete control
[14] = Preemergence, 500 g ai/ha, visual injury, 0 to 100 scale (0 no effect, 100 complete control), approx. ten days
[15] = 62 g ai/ha, scale of 0 to 100 where 0 is no effect and 100 is complete control
[16] = 125 g ai/ha, scale 0 to 100, 0 is no effect, 100 is complete control

Compound: CCCc1ncc(C(=O)C2=C(O)CCCC2=O)c(=O)n1Cc1ccccc1 [Compound 103]
- Plant response rating, Corn (corn (Zea mays); [11]): 0
- Plant response rating, Corn (corn (Zea mays); [12]): 20
- Plant response rating, Corn (corn (Zea mays); [13]): 0
- Plant response rating, Corn (corn (Zea mays); [14]): 0
- Plant response rating, Foxtail, Giant [1, 11]: 0
- Plant response rating, Foxtail, Giant [1, 12]: 20
- Plant response rating, Foxtail, Giant [1, 13]: 0
- Plant response rating, Foxtail, Giant [1, 14]: 60
- Plant response rating, Wheat [2, 11]: 0
- Plant response rating, Wheat [2, 12]: 0
- Plant response rating, Wheat [2, 13]: 0
- Plant response rating, Wheat [2, 14]: 0
- Plant response rating, Pigweed [3, 11]: 100
- Plant response rating, Pigweed [3, 12]: 100
- Plant response rating, Pigweed [3, 13]: 90
- Plant response rating, Pigweed [3, 14]: 100
- Plant response rating, Crabgrass, Large [4, 11]: 10
- Plant response rating, Crabgrass, Large [4, 12]: 40
- Plant response rating, Crabgrass, Large [4, 13]: 40
- Plant response rating, Crabgrass, Large [4, 14]: 80
- Plant response rating, Barnyardgrass [5, 11]: 30
- Plant response rating, Barnyardgrass [5, 12]: 60
- Plant response rating, Barnyardgrass [5, 13]: 0
- Plant response rating, Barnyardgrass [5, 14]: 20
- Plant response rating, Velvetleaf [6, 11]: 100
- Plant response rating, Velvetleaf [6, 12]: 100
- Plant response rating, Velvetleaf [6, 13]: 60
- Plant response rating, Velvetleaf [6, 14]: 90
- Plant response rating, Morningglory [7, 11]: 100
- Plant response rating, Morningglory [7, 12]: 100
- Plant response rating, Morningglory [7, 13]: 20
- Plant response rating, Morningglory [7, 14]: 60
- Plant response rating, Flood, Rice (rice (Oryza sativa)): 0
- Plant response rating, Rice (rice (Oryza sativa); [15]): 0
- Plant response rating, Rice (rice (Oryza sativa); [16]): 0
- Rice plant response rating (rice (Oryza sativa)): 0
- Plant response rating, Flood, Ducksalad [8]: 0
- Plant response rating, Ducksalad [8, 15]: 0
- Plant response rating, Ducksalad [8, 16]: 0
- Ducksalad plant response rating [8]: 0
- Plant response rating, Flood, Barnyardgrass [9]: 0
- Plant response rating, Barnyardgrass [9, 15]: 0
- Plant response rating, Barnyardgrass [9, 16]: 0
- Barnyardgrass plant response rating [9]: 0
- Plant response rating, Flood, Sedge, Umbrella [10]: 0
- Plant response rating, Sedge, Umbrella [10, 15]: 0
- Plant response rating, Sedge, Umbrella [10, 16]: 0
- Sedge, Umbrella plant response rating [10]: 0

Compound: CCCc1ncc(C(=O)C2=C(O)CCCC2=O)c(=O)n1Cc1cccc(OC)c1 [Compound 104]
- Plant response rating, Corn (corn (Zea mays); [11]): 0
- Plant response rating, Corn (corn (Zea mays); [12]): 0
- Plant response rating, Corn (corn (Zea mays); [13]): 0
- Plant response rating, Corn (corn (Zea mays); [14]): 0
- Plant response rating, Foxtail, Giant [1, 11]: 0
- Plant response rating, Foxtail, Giant [1, 12]: 0
- Plant response rating, Foxtail, Giant [1, 13]: 0
- Plant response rating, Foxtail, Giant [1, 14]: 0
- Plant response rating, Wheat [2, 11]: 0
- Plant response rating, Wheat [2, 12]: 0
- Plant response rating, Wheat [2, 13]: 0
- Plant response rating, Wheat [2, 14]: 0
- Plant response rating, Pigweed [3, 11]: 100
- Plant response rating, Pigweed [3, 12]: 100
- Plant response rating, Pigweed [3, 13]: 80
- Plant response rating, Pigweed [3, 14]: 90
- Plant response rating, Crabgrass, Large [4, 11]: 0
- Plant response rating, Crabgrass, Large [4, 12]: 0
- Plant response rating, Crabgrass, Large [4, 13]: 0
- Plant response rating, Crabgrass, Large [4, 14]: 0
- Plant response rating, Barnyardgrass [5, 11]: 10
- Plant response rating, Barnyardgrass [5, 12]: 40
- Plant response rating, Barnyardgrass [5, 13]: 0
- Plant response rating, Barnyardgrass [5, 14]: 0
- Plant response rating, Velvetleaf [6, 11]: 70
- Plant response rating, Velvetleaf [6, 12]: 80
- Plant response rating, Velvetleaf [6, 13]: 0
- Plant response rating, Velvetleaf [6, 14]: 40
- Plant response rating, Morningglory [7, 11]: 70
- Plant response rating, Morningglory [7, 12]: 100
- Plant response rating, Morningglory [7, 13]: 0
- Plant response rating, Morningglory [7, 14]: 0
- Plant response rating, Flood, Rice (rice (Oryza sativa)): 0
- Plant response rating, Rice (rice (Oryza sativa); [15]): 0
- Plant response rating, Rice (rice (Oryza sativa); [16]): 0
- Rice plant response rating (rice (Oryza sativa)): 0
- Plant response rating, Flood, Ducksalad [8]: 0
- Plant response rating, Ducksalad [8, 15]: 0
- Plant response rating, Ducksalad [8, 16]: 0
- Ducksalad plant response rating [8]: 0
- Plant response rating, Flood, Barnyardgrass [9]: 0
- Plant response rating, Barnyardgrass [9, 15]: 0
- Plant response rating, Barnyardgrass [9, 16]: 0
- Barnyardgrass plant response rating [9]: 0
- Plant response rating, Flood, Sedge, Umbrella [10]: 0
- Plant response rating, Sedge, Umbrella [10, 15]: 0
- Plant response rating, Sedge, Umbrella [10, 16]: 0
- Sedge, Umbrella plant response rating [10]: 0
